In patent US20100222416A1, “Diagnostic Marker and Therapeutic Target for Cancer” (priority 2005, published 2010):

Experiments:
Format in all cases: cell-based, human
[1] = system: nm23H1-A; experiment: nm23H1-A mRNA expression in colon cancer cells treated with different anticancer agents (RT-PCR and real time PCR); details: HT29 cell line, 24 hrs
[2] = system: nm23H1-A; experiment: RT-PCR / real time PCR of nm23H1-A mRNA in 5-FU treated colon cancer cell lines; details: Colo 205 cells, 100 μM, 24 hrs
Description: (§1) The over expression of nm23H1-B was checked at RNA level by RT-PCR. Colo 205 cells were seeded in 6 well plates at 80% confluence and treated with 100 μM of 5FU for 24 hrs. Subsequently, 1 ml of Trizol reagent (Invitrogen) was added to the cells after a phosphate buffer saline washing for extraction of RNA. The total RNA was extracted using chloroform-isopropyl alcohol method. Finally, the pellet was washed with 70% ethanol and dried on a speed-vac. Control RNA from untreated cells was also extracted in a similar fashion (cells, not treated with 5FU.
(§2) RT-PCR was carried out using one step RT-PCR Kit (Qiagen) according to manufacturer's instructions. 1 μg of RNA was taken and mixed with specific primers of nm23H1A & nm23H1B respectively (Table 1, SEQ ID: 3,4,5). β2-micro globulin (primer sequence, Table 1, SEQ ID: 6,7) was used as a control. The PCR amplified samples were then analyzed on a 1.5% agarose gel.

[3] = system: nm23H1-B protein; experiment: Western blot of nuclear and cytosolic fractions of 5FU treated Colo 205 cells; details: 100 μM, 24 hours
Description: Intracellular localization of both nm23H1-A & nm23H1-B gene was evaluated by Western Blot analysis. Colo 205 cells were treated with 100 μM 5FU for 24 hours and cells were removed from their dishes by gentle scraping. Cells were washed with cold PBS and then resuspended in cold nuclei extraction buffer (320 mM sucrose, 5 mM Mgcl2, 10 mM HEPES, 1% Triton X-100 at pH 7.4) at a ratio of 1 ml per million cells. Nuclear fraction was then pelleted by centrifugation at 2000×g and washed twice with nuclei washing buffer (same as nuclei extraction buffer without Triton X-100). Supernatant was collected separately as a cytosolic fraction. Protein was estimated in both nuclear and cytosolic fraction and equal amount of protein was loaded on a 15% SDS PAGE followed by electrobloting on to a polyvinylidene difluoride membrane. Transferred proteins were incubated with blocking buffer containing 3% bovine serum albumin in phosphate-buffered saline. Polyclonal antibody specific for nm23 protein (Santa Cruz) and peroxidase-labeled goat anti-rabbit IgG (Sigma) were used to probe the target gene.

[4] = system: nm23H1-B gene; experiment: nm23H1-B mRNA expression in colon cancer cells treated with different anticancer agents (RT-PCR and real time PCR); details: HT29 cell line, 24 hrs
Description: To study the effect of other anticancer agents on expression of nm23H1-B gene, we took representative of different classes of anticancer agents like alkylating agents (cisplatin), topoisomerase I and II inhibitors (CPT-11), RNA/DNA antimetabolites (5-FU) and antimitotic agents (paclitaxel).
Cells were treated with different anticancer agents for 24 hrs and RNA was isolated.

[5] = system: nm23H1 protein (19.6 kDa form coded by nm23H1-B gene); experiment: Two-dimensional PAGE / MALDI of untreated and 5FU treated Colo 205 cell lysate, differentially expressed proteins; details: colo 205 cells, 100 μM, 24 hrs, 2D PAGE spot intensity
Description: Two-dimensional gel electrophoresis was carried out to identify differentially expressed proteins on treatment with anticancer agents specifically, colon/colorectal cancer cell line (NCCS, Pune, India) was treated with 5-FU (Fivoflu, Dabur Pharma Ltd, India). Untreated cells (cells, not treated with 5FU) were taken as control.
100 μM of 5-FU was added to colo 205 cells seeded at 80% confluence and were harvested after 24 hrs of treatment. Cells were lysed in lysis buffer (Urea 0.54 g/ml, CHAPS 40 mg/ml and DTT 20 mg/ml) and the clear supernatant of treated and untreated (not treated with 5-FU) cell lysate were subjected to isoelectric focusing (Bio-Rad, Protean IEF Cell) on separate 17 cm IPG strips of 4-7 pH range.
Second dimension electrophoresis was subsequently carried out on a 12% SDS-PAGE (Protean II XL electrophoresis system, Bio-Rad). The gel was silver stained for visualization of the protein spots and a digitized image of the 2D gel was generated, using GS 800 Densitometer (Bio-Rad). […]
The protein spots showing more than 2-fold change in intensity in 5-FU treated and untreated samples were further analyzed. […] The dried samples were reconstituted in 10 μl of 0.1% (v/v of 50% acetonitrile) trifluoroacetic acid and peptides were detected on a Matrix-Assisted Laser Desorption/Ionisation-Time of Flight Mass Spectrometry (MALDI-TOF MS) (Voyager-DE STR). […]

[6] = system: nm23H1-B gene; experiment: RT-PCR / real time PCR of nm23H1-B mRNA in 5-FU treated colon cancer cell lines (Colo 205, HT29)
Description: as §1, §2

Row | SMILES | mRNA levels of nm23H1-A [1] | change in nm23H1-A expression level (RNA level) [2] | nm23H1-B protein level [3] | mRNA levels of nm23H1-B [4] | up regulation of nm23H1 protein in treated cells as compared to untreated [5] | change in nm23H1-B gene expression (RNA level) ([6]; Colo 205 cells, 100 μM, 24 hrs, RT-PCR) | overexpression of nm23H1-B gene ([6]; colon/colorectal cancer cells)
1 | O=c1[nH]cc(F)c(=O)[nH]1 [5-FU] | Increase | insignificant change | up-regulation | Increase | more than 6 fold | up regulation | about nine
2 | CCc1c2c(nc3ccc(OC(=O)N4CCC(N5CCCCC5)CC4)cc13)-c1cc3c(c(=O)n1C2)COC(=O)[C@]3(O)CC [CPT11, camptothecin-11] | Increase | – | – | Increase | – | – | –
3 | N.N.[Cl][Pt][Cl] [cisplatin] | Increase | – | – | Increase | – | – | –
4 | CC(=O)O[C@H]1C(=O)[C@@]2(C)[C@H]([C@H](OC(=O)c3ccccc3)[C@]3(O)C[C@H](OC(=O)[C@H](O)[C@@H](NC(=O)c4ccccc4)c4ccccc4)C(C)=C1C3(C)C)[C@]1(OC(C)=O)CO[C@@H]1C[C@@H]2O [paclitaxel] | Increase | – | – | Increase | – | – | –
